Source: ChEMBL document CHEMBL5291721, “A preclinical secondary pharmacology resource illuminates target-adverse drug reaction associations of marketed drugs” (Nat Commun, 2023)

What was measured:
[1] = target: T1, Alpha-2A adrenergic receptor (Homo sapiens, UniProt P08913)
T1 sequence (P08913 whole entry): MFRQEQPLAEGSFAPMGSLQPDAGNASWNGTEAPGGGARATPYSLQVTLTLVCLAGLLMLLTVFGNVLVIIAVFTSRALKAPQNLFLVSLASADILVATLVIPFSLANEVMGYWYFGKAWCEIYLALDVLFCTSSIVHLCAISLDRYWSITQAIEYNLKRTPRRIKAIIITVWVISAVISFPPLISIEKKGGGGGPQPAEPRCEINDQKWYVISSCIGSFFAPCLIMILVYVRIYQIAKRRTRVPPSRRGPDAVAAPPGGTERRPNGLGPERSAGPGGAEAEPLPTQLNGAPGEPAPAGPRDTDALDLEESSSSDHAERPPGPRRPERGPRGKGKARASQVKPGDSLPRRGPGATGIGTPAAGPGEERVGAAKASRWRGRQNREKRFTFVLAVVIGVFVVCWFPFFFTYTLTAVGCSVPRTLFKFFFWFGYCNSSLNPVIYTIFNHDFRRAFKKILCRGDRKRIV

[2] = target: 3',5'-cyclic-AMP phosphodiesterase 4A (Homo sapiens, UniProt P27815); type: functional
[3] = target: Vascular endothelial growth factor receptor 2 (Homo sapiens, UniProt P35968); type: functional
[4] = target: T2, Muscarinic acetylcholine receptor M2 (Homo sapiens, UniProt P08172)
T2 sequence (P08172 whole entry): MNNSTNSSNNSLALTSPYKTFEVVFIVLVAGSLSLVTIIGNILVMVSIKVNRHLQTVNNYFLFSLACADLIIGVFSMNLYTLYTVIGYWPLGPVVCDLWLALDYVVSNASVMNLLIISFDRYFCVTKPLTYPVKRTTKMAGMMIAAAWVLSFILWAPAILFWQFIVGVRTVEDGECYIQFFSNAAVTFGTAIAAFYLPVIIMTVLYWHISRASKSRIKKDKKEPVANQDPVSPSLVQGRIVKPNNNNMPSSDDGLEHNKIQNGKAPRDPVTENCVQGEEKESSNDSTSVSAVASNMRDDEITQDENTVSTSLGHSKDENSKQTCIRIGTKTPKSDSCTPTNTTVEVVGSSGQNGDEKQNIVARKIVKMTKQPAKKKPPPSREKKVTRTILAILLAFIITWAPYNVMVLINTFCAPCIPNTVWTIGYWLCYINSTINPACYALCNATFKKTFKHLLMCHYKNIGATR

Thromboxane A2 receptor = target: T3, Thromboxane A2 receptor (Homo sapiens, UniProt P21731); type: functional, cell-based
T3 sequence (P21731 whole entry): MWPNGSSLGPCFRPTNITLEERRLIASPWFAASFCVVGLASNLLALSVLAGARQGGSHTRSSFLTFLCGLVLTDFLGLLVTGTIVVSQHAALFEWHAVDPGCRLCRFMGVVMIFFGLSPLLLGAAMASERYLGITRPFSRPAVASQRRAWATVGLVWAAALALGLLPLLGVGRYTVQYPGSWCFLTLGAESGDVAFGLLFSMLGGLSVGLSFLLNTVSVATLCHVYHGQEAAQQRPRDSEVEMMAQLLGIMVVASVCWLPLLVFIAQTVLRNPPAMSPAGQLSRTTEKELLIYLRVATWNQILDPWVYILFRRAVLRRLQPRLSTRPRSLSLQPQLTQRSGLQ

[5] = target: T4, Alpha-1A adrenergic receptor (Homo sapiens, UniProt P35348); type: functional, cell-based
T4 sequence (P35348 whole entry): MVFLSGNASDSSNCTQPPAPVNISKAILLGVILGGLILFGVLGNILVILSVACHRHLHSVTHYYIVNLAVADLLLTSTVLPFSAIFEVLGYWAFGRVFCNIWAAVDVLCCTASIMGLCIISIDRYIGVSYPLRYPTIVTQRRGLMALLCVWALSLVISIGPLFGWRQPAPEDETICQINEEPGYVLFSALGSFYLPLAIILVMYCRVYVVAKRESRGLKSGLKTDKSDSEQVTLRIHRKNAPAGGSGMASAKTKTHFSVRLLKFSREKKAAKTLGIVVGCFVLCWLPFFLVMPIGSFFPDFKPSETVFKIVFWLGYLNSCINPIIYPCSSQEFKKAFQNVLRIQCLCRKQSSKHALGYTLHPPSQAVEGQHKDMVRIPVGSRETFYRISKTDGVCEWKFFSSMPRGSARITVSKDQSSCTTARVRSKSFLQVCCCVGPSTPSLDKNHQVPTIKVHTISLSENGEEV

[6] = target: Prostaglandin G/H synthase 1 (Homo sapiens, UniProt P23219); type: functional
Mu-type opioid receptor = Mu-type opioid receptor (Homo sapiens, UniProt P35372)
[7] = target: Sodium-dependent noradrenaline transporter (Homo sapiens, UniProt P23975)
[8] = target: T5, Muscarinic acetylcholine receptor M1 (Homo sapiens, UniProt P11229); type: functional, cell-based
T5 sequence (P11229 whole entry): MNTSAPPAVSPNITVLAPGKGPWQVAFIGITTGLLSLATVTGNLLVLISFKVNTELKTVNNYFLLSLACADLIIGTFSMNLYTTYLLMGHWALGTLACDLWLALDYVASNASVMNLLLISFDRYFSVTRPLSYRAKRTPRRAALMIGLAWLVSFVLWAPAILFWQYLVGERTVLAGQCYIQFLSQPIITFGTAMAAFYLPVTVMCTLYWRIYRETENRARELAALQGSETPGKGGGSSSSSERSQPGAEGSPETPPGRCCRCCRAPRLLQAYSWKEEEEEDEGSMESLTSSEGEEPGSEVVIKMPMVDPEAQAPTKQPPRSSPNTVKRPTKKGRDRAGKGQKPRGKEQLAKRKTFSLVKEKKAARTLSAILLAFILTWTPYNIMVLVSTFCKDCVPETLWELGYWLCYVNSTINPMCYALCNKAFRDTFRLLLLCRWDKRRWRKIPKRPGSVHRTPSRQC

[9] = target: T5, Muscarinic acetylcholine receptor M1; type: functional, cell-based; remark: listed apart in the source
[10] = target: Sodium-dependent serotonin transporter (Homo sapiens, UniProt P31645)
Note: assay procedure not described here.

Vascular endothelial growth factor receptor 2, sequence (P35968 whole entry): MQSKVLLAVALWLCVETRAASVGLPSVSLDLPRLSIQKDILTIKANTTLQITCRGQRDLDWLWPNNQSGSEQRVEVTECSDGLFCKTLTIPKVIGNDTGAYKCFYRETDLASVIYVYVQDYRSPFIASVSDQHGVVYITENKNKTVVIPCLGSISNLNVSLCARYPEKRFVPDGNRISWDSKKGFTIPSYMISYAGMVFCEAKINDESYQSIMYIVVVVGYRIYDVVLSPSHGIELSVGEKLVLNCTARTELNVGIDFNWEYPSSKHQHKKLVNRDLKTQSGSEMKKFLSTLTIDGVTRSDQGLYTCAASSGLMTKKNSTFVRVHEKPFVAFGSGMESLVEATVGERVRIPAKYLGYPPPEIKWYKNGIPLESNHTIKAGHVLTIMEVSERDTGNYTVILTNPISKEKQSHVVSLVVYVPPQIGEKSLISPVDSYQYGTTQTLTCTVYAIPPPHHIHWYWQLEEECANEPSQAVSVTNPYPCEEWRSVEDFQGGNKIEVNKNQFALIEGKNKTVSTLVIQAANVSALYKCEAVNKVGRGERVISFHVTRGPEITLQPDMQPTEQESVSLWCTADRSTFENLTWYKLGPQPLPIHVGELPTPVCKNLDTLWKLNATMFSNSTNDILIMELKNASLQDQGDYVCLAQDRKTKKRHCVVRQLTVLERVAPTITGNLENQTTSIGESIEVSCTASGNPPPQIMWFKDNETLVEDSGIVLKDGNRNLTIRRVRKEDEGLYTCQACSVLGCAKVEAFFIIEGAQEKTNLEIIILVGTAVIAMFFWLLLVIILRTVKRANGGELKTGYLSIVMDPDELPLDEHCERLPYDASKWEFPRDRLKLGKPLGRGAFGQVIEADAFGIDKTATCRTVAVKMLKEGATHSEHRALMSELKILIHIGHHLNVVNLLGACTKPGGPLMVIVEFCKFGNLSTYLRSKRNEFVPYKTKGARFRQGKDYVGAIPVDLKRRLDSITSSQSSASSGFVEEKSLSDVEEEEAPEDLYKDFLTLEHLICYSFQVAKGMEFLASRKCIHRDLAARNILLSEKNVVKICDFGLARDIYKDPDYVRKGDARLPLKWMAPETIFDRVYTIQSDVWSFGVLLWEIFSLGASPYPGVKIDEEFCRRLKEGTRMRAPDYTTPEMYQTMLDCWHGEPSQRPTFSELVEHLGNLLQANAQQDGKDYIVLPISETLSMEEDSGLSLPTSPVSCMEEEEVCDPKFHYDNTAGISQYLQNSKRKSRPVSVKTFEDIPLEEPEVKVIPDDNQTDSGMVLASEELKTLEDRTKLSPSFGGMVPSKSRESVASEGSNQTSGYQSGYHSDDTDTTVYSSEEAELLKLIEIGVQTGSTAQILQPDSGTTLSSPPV
Mu-type opioid receptor, sequence (P35372 whole entry): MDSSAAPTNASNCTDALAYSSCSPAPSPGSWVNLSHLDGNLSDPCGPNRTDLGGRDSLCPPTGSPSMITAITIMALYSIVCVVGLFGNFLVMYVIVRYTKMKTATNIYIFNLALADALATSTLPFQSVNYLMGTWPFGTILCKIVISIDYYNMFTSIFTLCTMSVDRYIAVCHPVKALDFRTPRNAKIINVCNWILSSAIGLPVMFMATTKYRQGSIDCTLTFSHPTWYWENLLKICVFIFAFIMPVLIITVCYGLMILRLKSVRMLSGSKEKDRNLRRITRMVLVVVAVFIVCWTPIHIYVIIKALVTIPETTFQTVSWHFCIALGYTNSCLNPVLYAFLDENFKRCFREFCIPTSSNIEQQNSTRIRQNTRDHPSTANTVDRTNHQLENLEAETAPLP
3',5'-cyclic-AMP phosphodiesterase 4A, sequence (P27815 whole entry): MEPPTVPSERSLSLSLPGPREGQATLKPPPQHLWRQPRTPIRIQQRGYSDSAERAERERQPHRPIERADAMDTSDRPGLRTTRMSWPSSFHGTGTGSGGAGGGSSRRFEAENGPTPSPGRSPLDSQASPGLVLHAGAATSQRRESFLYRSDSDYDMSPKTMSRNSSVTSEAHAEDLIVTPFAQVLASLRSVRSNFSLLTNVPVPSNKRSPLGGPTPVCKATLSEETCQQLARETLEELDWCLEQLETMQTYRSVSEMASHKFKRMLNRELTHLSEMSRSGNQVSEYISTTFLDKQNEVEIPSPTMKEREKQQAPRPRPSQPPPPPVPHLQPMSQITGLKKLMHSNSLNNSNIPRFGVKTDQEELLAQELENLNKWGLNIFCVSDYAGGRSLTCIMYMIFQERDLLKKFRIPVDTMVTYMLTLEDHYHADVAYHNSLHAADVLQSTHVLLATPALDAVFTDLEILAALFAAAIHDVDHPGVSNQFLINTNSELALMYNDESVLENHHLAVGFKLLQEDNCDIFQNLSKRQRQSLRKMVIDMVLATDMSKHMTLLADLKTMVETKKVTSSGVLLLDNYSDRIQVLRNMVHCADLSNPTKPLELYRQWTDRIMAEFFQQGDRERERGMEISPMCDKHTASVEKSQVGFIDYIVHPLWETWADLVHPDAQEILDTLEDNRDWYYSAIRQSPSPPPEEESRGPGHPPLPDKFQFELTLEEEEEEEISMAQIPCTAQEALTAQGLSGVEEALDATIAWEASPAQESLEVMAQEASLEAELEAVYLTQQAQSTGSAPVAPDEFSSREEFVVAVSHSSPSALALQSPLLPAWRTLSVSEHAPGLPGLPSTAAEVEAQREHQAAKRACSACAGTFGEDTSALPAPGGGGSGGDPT
Sodium-dependent noradrenaline transporter, sequence (P23975 whole entry): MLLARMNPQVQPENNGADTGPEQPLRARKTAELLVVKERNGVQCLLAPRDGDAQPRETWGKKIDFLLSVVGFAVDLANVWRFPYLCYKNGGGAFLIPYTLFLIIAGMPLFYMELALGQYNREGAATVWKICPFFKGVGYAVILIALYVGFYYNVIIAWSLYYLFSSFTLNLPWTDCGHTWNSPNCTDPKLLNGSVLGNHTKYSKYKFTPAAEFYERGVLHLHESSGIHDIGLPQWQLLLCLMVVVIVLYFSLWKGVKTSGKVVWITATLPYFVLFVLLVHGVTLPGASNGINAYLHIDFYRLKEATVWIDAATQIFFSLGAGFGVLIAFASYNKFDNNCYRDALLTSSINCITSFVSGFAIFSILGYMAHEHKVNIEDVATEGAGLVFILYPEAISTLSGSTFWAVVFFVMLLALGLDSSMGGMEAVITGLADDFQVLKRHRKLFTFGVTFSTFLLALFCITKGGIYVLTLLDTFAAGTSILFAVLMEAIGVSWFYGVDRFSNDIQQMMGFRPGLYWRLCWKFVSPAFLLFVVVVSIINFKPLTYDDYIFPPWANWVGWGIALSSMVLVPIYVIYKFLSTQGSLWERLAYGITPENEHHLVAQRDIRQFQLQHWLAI
Prostaglandin G/H synthase 1, sequence (P23219 whole entry): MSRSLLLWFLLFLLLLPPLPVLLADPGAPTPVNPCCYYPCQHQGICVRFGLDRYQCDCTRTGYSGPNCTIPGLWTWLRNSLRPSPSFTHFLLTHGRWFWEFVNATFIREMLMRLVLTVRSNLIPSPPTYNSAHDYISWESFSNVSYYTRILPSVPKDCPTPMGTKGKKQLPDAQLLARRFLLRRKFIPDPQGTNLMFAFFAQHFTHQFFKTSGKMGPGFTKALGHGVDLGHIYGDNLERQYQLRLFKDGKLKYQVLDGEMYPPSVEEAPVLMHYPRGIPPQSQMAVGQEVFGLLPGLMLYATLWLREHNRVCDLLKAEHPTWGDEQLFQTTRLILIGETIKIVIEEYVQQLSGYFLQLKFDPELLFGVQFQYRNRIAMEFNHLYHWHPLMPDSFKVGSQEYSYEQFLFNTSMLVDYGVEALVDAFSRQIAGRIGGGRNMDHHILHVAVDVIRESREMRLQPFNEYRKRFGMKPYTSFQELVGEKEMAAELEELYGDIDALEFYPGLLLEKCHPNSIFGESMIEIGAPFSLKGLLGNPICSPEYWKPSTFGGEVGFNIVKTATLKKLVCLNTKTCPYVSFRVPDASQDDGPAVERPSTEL
Sodium-dependent serotonin transporter, sequence (P31645 whole entry): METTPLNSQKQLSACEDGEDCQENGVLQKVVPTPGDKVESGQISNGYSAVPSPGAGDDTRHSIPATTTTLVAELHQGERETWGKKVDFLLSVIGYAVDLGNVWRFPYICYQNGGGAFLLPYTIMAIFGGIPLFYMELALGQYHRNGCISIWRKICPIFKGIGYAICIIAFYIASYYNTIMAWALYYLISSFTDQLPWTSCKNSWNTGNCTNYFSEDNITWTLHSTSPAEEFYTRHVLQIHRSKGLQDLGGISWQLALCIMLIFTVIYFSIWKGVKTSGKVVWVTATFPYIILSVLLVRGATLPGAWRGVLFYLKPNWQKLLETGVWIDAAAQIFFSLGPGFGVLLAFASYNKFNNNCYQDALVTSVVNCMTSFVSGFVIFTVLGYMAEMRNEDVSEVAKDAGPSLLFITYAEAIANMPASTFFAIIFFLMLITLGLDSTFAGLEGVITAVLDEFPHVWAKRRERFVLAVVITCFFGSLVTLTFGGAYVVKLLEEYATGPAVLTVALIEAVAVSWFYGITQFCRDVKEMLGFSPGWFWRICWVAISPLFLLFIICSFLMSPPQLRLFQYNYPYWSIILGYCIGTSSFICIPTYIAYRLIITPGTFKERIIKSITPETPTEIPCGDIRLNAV

Row | Compound | AC50 [1] [µM] | AC50 [2] [µM] | AC50 [3] [µM] | AC50 [4] [µM] | AC50 (Thromboxane A2 receptor) [µM] | AC50 [5] [µM] | AC50 [6] [µM] | AC50 (Mu-type opioid receptor) [µM] | AC50 [7] [µM] | AC50 [8] [µM] | AC50 [9] [µM] | AC50 [10] [µM]
1 | CCN1CCCC1CNC(=O)c1cc(S(N)(=O)=O)ccc1OC (configuration not stated) [SULPIRIDE] | 7.52 | > 30 | > 30 | > 30 | > 30 | > 30 | 11.7 | > 30 | > 30 |  |  | 
2 | CCOc1ccc(Cc2cc([C@@H]3O[C@H](CO)[C@@H](O)[C@H](O)[C@H]3O)ccc2Cl)cc1 [DAPAGLIFLOZIN] | > 30 | > 30 | > 30 | > 30 | > 30 | > 30 | > 30 | > 30 | > 30 | > 30 | > 30 | 
3 | Nc1nc2nc[nH]c2c(=S)[nH]1 [THIOGUANINE] | > 30 | > 30 |  | > 30 | > 30 | > 30 | 0.81 | > 30 | > 30 |  |  | 
4 | COc1ccccc1N1CCN(CC(O)COc2cccc3ccccc23)CC1 (configuration not stated) [NAFTOPIDIL] | 0.29 | > 30 |  | > 30 | > 30 |  | > 30 | 0.9 | 6.01 |  |  | 1.43
5 | COc1cc2nc(N3CCN(C(=O)c4ccco4)CC3)nc(N)c2cc1OC [PRAZOSIN] |  | > 30 |  | 13.3 | > 30 |  | > 30 | 17.5 | > 30 |  |  | 
6 | Nc1ccc2cc3ccc(N)cc3nc2c1 [PROFLAVINE] | 7.27 | > 30 | 25.8 | 2.61 | > 0.3 |  | 22.1 | 3.64 | 2.69 | > 0.3 |  | 26.6
7 | COc1cc([C@@H]2c3cc4c(cc3[C@H](O)[C@H]3COC(=O)[C@H]23)OCO4)cc(OC)c1OC [PODOFILOX] | > 30 | > 10 | > 30 | > 30 | > 30 | 6.56 | > 30 | > 30 | > 30 |  |  | 
8 | O=c1[nH]c(=O)n(C2CCCO2)cc1F (configuration not stated) [TEGAFUR] | > 30 | > 30 | > 30 | > 30 | > 30 | > 30 | > 30 | > 30 | > 30 |  |  | 
9 | CC[C@]1(O)C[C@H]2CN(CCc3c([nH]c4ccccc34)[C@@](C(=O)OC)(c3cc4c(cc3OC)N(C=O)[C@H]3[C@@](O)(C(=O)OC)[C@H](OC(C)=O)[C@]5(CC)C=CCN6CC[C@]43[C@@H]65)C2)C1 [VINCRISTINE] | > 30 | > 30 |  | > 30 | > 30 | > 30 | 11.2 | > 30 | > 30 |  |  | 
10 | CCCC1O[C@@H]2C[C@H]3[C@@H]4CCC5=CC(=O)C=C[C@]5(C)[C@H]4[C@@H](O)C[C@]3(C)[C@]2(C(=O)CO)O1 (some centres not stated) [BUDESONIDE] | > 30 | > 30 | > 30 | > 30 | > 30 | > 30 | > 30 | > 30 | > 30 |  |  | 
